Measurements from patent US8895544B2, “Indazoles” (Pfizer Limited, priority 2011, dated 2014).
Where a name gives a salt, the structure may show the parent alone.

Legend:
[1] = target: JAK3 enzyme (Homo sapiens (Human), UniProt P52333); experiment: JAK3 isolated enzyme high ATP Caliper endpoint assay; assay type: biochemical; conditions: 400 μM ATP, read-out: JAK-3 IC50
Procedure: JAK3 Isolated Enzyme High ATP Caliper Endpoint Assay
4 mM stock solutions of test compounds are prepared and serially diluted in 100% DMSO. […] Greiner 384 well plates are prepared containing 400 nl of serially diluted compound, standard and HPE/ZPE. Final top assay concentration is 80 μM as the assay dilution factor is fifty.
JAK3 enzyme stock is diluted to 2 nM in assay buffer (10 mM HEPES free acid pH 7.5, 10 mM HEPES free base pH 7.5, 10 mM MgCL2, 0.0005% Tween-20, 0.01% BSA) containing 2 mM DTT (all supplied by Sigma). ATP is made up at 10 mM stock in sterile water and diluted to 800 μM in assay buffer. Peptide (American peptide company) is made up at 30 mM in 100% DMSO and diluted to 3 μM in assay buffer.
Assays are performed in Greiner polypropylene 384 well plates. Following compound preparation within the plate 10 μl of enzyme in assay buffer containing DTT is added using a Multidrop Micro. Final assay concentration of enzyme is 1 nM. Compound and enzyme are pre-incubated for 60 minutes at room temperature using low evaporation lids before addition of 10 μl ATP/peptide mixture in assay buffer using a Multidrop Micro. […] Plates are foil sealed and incubated for a further 60 minutes at room temperature. Stop solution is added to the plates (20 μl/well) using a Multidrop Micro and plates are loaded onto the Caliper EZReader II. Data is generated by the shift in mobility of non-phosphorylated peptide substrates and phosphorylated products by electrophoresis within a chip and detected via LED induced fluorescence. Data is analysed using LabChip EZReader software which calculates the relative heights of the substrate and product peaks and reports product/product plus substrate peak ratio. Test compound data are subsequently expressed as percentage inhibition defined by HPE and ZPE values for each plate. Percentage inhibition in the presence of test compound is plotted against compound concentration on a log scale to determine an IC50 from the resultant sigmoid curve.

[2] = target: JAK1 enzyme (Homo sapiens (Human), UniProt P23458); experiment: JAK1 isolated enzyme high ATP Caliper endpoint assay; assay type: biochemical; conditions: 2.5 mM ATP, read-out: JAK-1 IC50;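 note: enzyme at 10 nM preincubated with inhibitor 30 min, then kinase reaction 120 min at room temperature, peptide phosphorylation read by microfluidic mobility shift with fluorescence, inhibition relative to HPE and ZPE plate controls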
Sequence of JAK1 enzyme (P23458 whole entry): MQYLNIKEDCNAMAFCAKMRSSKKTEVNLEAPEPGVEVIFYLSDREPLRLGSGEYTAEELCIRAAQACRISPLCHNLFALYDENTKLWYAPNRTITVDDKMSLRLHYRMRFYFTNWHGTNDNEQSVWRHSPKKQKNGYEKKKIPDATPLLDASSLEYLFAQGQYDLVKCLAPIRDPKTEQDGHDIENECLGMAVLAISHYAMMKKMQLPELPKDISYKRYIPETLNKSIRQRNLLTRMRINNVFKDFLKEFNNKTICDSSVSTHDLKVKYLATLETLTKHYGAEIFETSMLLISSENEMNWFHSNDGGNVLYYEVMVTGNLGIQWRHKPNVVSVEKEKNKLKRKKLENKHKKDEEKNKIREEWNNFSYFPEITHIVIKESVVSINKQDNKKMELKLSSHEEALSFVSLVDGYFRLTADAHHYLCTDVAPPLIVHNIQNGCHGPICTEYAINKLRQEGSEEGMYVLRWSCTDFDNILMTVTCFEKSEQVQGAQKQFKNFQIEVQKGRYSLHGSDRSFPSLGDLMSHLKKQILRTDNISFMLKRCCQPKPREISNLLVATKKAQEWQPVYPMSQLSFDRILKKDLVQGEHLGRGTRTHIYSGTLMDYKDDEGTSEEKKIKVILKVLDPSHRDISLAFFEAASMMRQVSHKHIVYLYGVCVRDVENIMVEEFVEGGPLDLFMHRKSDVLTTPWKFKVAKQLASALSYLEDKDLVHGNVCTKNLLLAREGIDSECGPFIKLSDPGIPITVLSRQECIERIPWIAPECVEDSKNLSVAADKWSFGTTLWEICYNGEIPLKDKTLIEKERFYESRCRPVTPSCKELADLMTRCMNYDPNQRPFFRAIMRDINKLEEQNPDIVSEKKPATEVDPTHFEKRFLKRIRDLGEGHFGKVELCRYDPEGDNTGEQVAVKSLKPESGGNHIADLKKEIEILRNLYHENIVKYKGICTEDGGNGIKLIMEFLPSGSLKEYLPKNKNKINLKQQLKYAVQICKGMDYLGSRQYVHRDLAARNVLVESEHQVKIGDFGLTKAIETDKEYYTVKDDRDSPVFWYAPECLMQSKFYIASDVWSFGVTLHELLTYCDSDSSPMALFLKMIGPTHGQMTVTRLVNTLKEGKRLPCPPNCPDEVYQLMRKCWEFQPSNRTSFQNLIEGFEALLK
Procedure: JAK1 Isolated Enzyme High ATP Caliper Endpoint Assay
4 mM stock solutions of test compounds are prepared and serially diluted in 100% DMSO. A standard curve using PF-00956980 (commercially available from Sigma Aldrich) at a top concentration of 4 mM is also prepared. High percentage effect (HPE) is defined by 500 μM PF-00956980 and 0% effect (ZPE) is defined by 100% DMSO. Greiner 384 well plates are prepared containing 400 nl of serially diluted compound, standard and HPE/ZPE. Final top assay concentration is 80 μM as the assay dilution factor is fifty.
JAK1 enzyme (Invitrogen) stock solution is made up at 5.2 μM in sterile water. JAK1 enzyme stock is diluted to 20 nM in assay buffer (10 mM HEPES free acid pH 7.5, 10 mM HEPES free base pH 7.5, 10 mM MgCL2, 0.0005% Tween-20, 0.01% BSA) containing 2 mM DTT (all supplied by Sigma) with the addition of one protease tablet per 25 mls buffer (Roche). ATP is made up at 10 mM stock in sterile water and diluted to 5 mM in assay buffer. Peptide H236 (Caliper Life Sciences) is made up at 1.5 mM in 100% DMSO and diluted to 3 μM in assay buffer. Stop buffer comprises 140 mM HEPES, 22.5 mM EDTA (Sigma) and 0.15% coating reagent (Caliper Life Sciences).
Assays are performed in Greiner polypropylene 384 well plates. Following compound preparation within the plate 10 μl of enzyme in assay buffer containing DTT is added using a Multidrop Micro. Final assay concentration of enzyme is 10 nM. Compound and enzyme are pre-incubated for 30 minutes at room temperature using low evaporation lids before addition of 10 μl ATP/peptide mixture in assay buffer using a Multidrop Micro. Final assay concentrations are 2.5 mM ATP and 1.5 μM peptide. Plates are foil sealed and incubated for a further 120 minutes at room temperature. Stop solution is added to the plates (20 μl/well) using a Multidrop Micro and plates are loaded onto the Caliper EZReader II. Data is generated by the shift in mobility of non-phosphorylated peptide substrates and phosphorylated products by electrophoresis within a chip and detected via LED induced fluorescence. Data is analysed using LabChip EZReader software which calculates the relative heights of the substrate and product peaks and reports product/product plus substrate peak ratio. Test compound data are subsequently expressed as percentage inhibition defined by HPE and ZPE values for each plate. Percentage inhibition in the presence of test compound is plotted against compound concentration on a log scale to determine an IC50 from the resultant sigmoid curve.

Sequence of JAK3 enzyme (P52333 whole entry): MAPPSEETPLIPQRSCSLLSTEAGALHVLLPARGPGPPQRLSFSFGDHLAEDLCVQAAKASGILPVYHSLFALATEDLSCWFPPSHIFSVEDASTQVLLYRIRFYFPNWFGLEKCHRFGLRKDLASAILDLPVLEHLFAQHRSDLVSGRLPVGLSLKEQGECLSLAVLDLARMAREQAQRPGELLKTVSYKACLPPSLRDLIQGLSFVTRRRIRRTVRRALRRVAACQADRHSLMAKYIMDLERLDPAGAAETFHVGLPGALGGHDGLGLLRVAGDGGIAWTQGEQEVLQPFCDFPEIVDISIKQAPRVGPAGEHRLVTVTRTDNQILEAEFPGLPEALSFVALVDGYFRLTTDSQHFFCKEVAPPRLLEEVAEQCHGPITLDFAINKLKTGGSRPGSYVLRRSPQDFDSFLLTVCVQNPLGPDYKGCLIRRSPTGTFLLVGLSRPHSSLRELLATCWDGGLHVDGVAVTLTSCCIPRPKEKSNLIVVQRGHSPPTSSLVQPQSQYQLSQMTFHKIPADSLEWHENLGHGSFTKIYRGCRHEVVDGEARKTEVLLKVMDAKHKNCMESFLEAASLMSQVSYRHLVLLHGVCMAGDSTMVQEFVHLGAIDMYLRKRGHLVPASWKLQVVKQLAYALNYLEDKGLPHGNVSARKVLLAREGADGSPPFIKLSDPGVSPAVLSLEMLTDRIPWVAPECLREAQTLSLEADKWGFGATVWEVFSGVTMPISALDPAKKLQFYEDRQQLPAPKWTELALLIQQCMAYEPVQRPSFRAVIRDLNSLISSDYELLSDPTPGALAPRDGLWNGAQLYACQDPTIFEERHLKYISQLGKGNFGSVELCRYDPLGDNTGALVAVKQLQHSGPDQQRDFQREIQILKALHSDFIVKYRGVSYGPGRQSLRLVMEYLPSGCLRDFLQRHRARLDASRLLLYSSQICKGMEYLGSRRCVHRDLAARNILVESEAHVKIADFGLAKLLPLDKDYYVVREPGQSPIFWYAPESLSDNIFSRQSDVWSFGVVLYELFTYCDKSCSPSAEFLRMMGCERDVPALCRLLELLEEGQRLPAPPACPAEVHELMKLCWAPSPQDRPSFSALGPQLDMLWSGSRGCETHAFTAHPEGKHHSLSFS

| Molecule | IC50 [1] | IC50 [2] |
| --- | --- | --- |
| CCc1cc(O)c(F)cc1-c1ccc2c(-c3nc4c([nH]3)CCN(C(=O)c3ccc(F)cc3)C4)n[nH]c2c1 [Example 1, {2-[6-(2-Ethyl-5-fluoro-4-hydroxy-phenyl)-1H-indazol-3-yl]-1,4,6,7-tetrahydro-imidazo[4,5-c]pyridin-5-yl}-(4-fluoro-phenyl)-methanone] | < 0.6 nM | < 0.7 nM |
| CCc1cc(O)c(F)cc1-c1ccc2c(-c3nc4c([nH]3)CCN(C(=O)c3ccsn3)C4)n[nH]c2c1 [Example 2, {2-[6-(2-Ethyl-5-fluoro-4-hydroxy-phenyl)-1H-indazol-3-yl]-1,4,6,7-tetrahydro-imidazo[4,5-c]pyridin-5-yl}-isothiazol-3-yl-methanone] | 0.5 nM | 46 nM |
| CCc1cc(O)c(F)cc1-c1ccc2c(-c3nc4c([nH]3)CCN(S(=O)(=O)c3ccc(N5CCOCC5)nc3)C4)n[nH]c2c1 [Example 6, 5-Ethyl-2-fluoro-4-{3-[5-(6-morpholin-4-yl-pyridine-3-sulfonyl)-4,5,6,7-tetrahydro-1H-imidazo[4,5-c]pyridin-2-yl]-1H-indazol-6-yl}-phenol] | 1.3 nM | 8.4 nM |
| CCc1cc(O)c(F)cc1-c1ccc2c(-c3nc4c([nH]3)CCN(S(=O)(=O)c3ccc(Oc5ccccc5)nc3)C4)n[nH]c2c1 [Example 7, 5-Ethyl-2-fluoro-4-{3-[5-(6-phenoxy-pyridine-3-sulfonyl)-4,5,6,7-tetrahydro-1H-imidazo[4,5-c]pyridin-2-yl]-1H-indazol-6-yl}-phenol] | 1.5 nM | 2.5 nM |
| CCc1cc(O)c(F)cc1-c1ccc2c(-c3nc4c([nH]3)CCN(C(=O)c3ccc(Cl)cn3)CC4)n[nH]c2c1 [Example 8, (5-Chloro-pyridin-2-yl)-{2-[6-(2-ethyl-5-fluoro-4-hydroxy-phenyl)-1H-indazol-3-yl]-4,5,7,8-tetrahydro-1H-imidazo[4,5-d]azebin-6-yl}-methanone] | 1.4 nM | 2.9 nM |
| CCc1cc(O)c(F)cc1-c1ccc2c(-c3nc4c([nH]3)CCN(C(=O)c3cc(C#N)ccn3)CC4)n[nH]c2c1 [Example 9, 2-{2-[6-(2-Ethyl-5-fluoro-4-hydroxy-phenyl)-1H-indazol-3-yl]-4,5,7,8-tetrahydro-1H-imidazo[4,5-d]azepine-6-carbonyl}-isonicotinonitrile] | 1.9 nM | 18.9 nM |
| CCc1cc(O)c(F)cc1-c1ccc2c(-c3nc4c([nH]3)CCN(C(=O)c3ccc(F)cc3)CC4)n[nH]c2c1 [Example 10, {2-[6-(2-Ethyl-5-fluoro-4-hydroxy-phenyl)-1H-indazol-3-yl]-4,5,7,8-tetrahydro-1H-imidazo[4,5-d]azepin-6-yl}-(4-fluoro-phenyl)-methanone] | 1.3 nM | 4.5 nM |
| CCc1cc(O)c(F)cc1-c1ccc2c(-c3nc4c([nH]3)CCN(C(=O)c3ccsn3)CC4)n[nH]c2c1 [Example 11, {2-[6-(2-Ethyl-5-fluoro-4-hydroxy-phenyl)-1H-indazol-3-yl]-4,5,7,8-tetrahydro-1H-imidazo[4,5-d]azepin-6-yl}-isothiazol-3-yl-methanone] | 1 nM | 2.5 nM |
| CCc1cc(O)c(F)cc1-c1ccc2c(-c3nc4c([nH]3)CCN(S(=O)(=O)c3ccc(F)cc3)C4)n[nH]c2c1 [Example 12, 5-Ethyl-2-fluoro-4-{3-[5-(4-fluoro-benzenesulfonyl)-4,5,6,7-tetrahydro-1H-imidazo[4,5-c]pyridin-2-yl]-1H-indazol-6-yl}-phenol] | 1.6 nM | 1.2 nM |
| CCc1cc(O)c(F)cc1-c1ccc2c(-c3nc4c([nH]3)CCN(C(=O)c3cnc(Oc5ccccc5F)cn3)C4)n[nH]c2c1 [Example 13, {2-[6-(2-Ethyl-5-fluoro-4-hydroxy-phenyl)-1H-indazol-3-yl]-1,4,6,7-tetrahydro-imidazo[4,5-c]pyridin-5-yl}-[5-(2-fluoro-phenoxy)-Dvrazin-2-yl]-methanone] | 3.6 nM | 1.5 nM |
| CCc1cc(O)c(F)cc1-c1ccc2c(-c3nc4c([nH]3)CCN(Cc3ccccc3)CC4)n[nH]c2c1 [Example 14, 4-[3-(6-Benzyl-1,4,5,6,7,8-hexahydro-imidazo[4,5-d]azepin-2-yl)-1H-indazol-6-yl]-5-ethyl-2-fluoro-phenol] | 1.4 nM | 0.8 nM |
| CCc1cc(O)c(F)cc1-c1ccc2c(-c3nc4c([nH]3)CCN(C(=O)c3ccc(Cl)cn3)C4)n[nH]c2c1 [Example 15, (5-Chloro-pyridin-2-yl)-{2-[6-(2-ethyl-5-fluoro-4-hydroxy-phenyl)-1H-indazol-3-yl]-1,4,6,7-tetrahydro-imidazo[4,5-d]pyridin-5-yl}-methanone] | 1 nM | – |
| CCc1cc(O)c(F)cc1-c1ccc2c(-c3nc4c([nH]3)CCN(C(=O)c3ccc(C#N)nc3)C4)n[nH]c2c1 [Example 16, 5-{2-[6-(2-Ethyl-5-fluoro-4-hydroxy-phenyl)-1H-indazol-3-yl]-1,4,6,7-tetrahydro-imidazo[4,5-c]pyridine-5-carbonyl}-pyridine-2-carbonitrile] | 1.9 nM | 0.7 nM |
| CCc1cc(O)c(F)cc1-c1ccc2c(-c3nc4c([nH]3)CCN(Cc3ccc(O)cc3)C4)n[nH]c2c1 [Example 19, 5-Ethyl-2-fluoro-4-{3-[5-(4-hydroxy-benzyl)-4,5,6,7-tetrahydro-1H-imidazo[4,5-c]pyridin-2-yl]-1H-indazol-6-yl}-phenol] | 2.2 nM | 4.3 nM |
| CCc1cc(O)c(F)cc1-c1ccc2c(-c3nc4c([nH]3)CCN(Cc3cccc(O)c3)C4)n[nH]c2c1 [Example 20, 5-Ethyl-2-fluoro-4-{3-[5-(3-hydroxy-benzyl)-4,5,6,7-tetrahydro-1H-imidazo[4,5-c]pyridin-2-yl]-1H-indazol-6-yl}-phenol] | 5.6 nM | 2.6 nM |
| CCc1cc(O)c(F)cc1-c1ccc2c(-c3nc4c([nH]3)CCN(Cc3ccnc(C#N)c3)C4)n[nH]c2c1 [Example 21, 4-{2-[6-(2-Ethyl-5-fluoro-4-hydroxy-phenyl)-1H-indazol-3-yl]-1,4,6,7-tetrahydro-imidazo[4,5-c]pyridin-5-ylmethyl}-pyridine-2-carbonitrile] | 1.4 nM | 5.9 nM |
| CCc1cc(O)c(F)cc1-c1ccc2c(-c3nc4c([nH]3)CCN(Cc3cccc(OC)c3)C4)n[nH]c2c1 [Example 22, 5-Ethyl-2-fluoro-4-{3-[5-(3-methoxy-benzyl)-4,5,6,7-tetrahydro-1H-imidazo[4,5-c]pyridin-2-yl]-1H-indazol-6-yl}-phenol formic acid salt] | 2.6 nM | 3 nM |
| CCc1cc(O)c(F)cc1-c1ccc2c(-c3nc4c([nH]3)CCN(Cc3cnc5ccccc5c3)C4)n[nH]c2c1 [Example 23, 5-Ethyl-2-fluoro-4-[3-(5-quinolin-3-ylmethyl-4,5,6,7-tetrahydro-1H-imidazo[4,5-c]pyridin-2-yl)-1H-indazol-6-yl]-phenol] | 1.2 nM | 1.7 nM |
| CCc1cc(O)c(F)cc1-c1ccc2c(-c3nc4c([nH]3)CCN(Cc3ccc(Oc5ccccc5)nc3)C4)n[nH]c2c1 [Example 24, 5-Ethyl-2-fluoro-4-{3-[5-(6-phenoxy-pyridin-3-ylmethyl)-4,5,6,7-tetrahydro-1H-imidazo[4,5-c]pyridin-2-yl]-1H-indazol-6-yl}-phenol] | 2.4 nM | 6.2 nM |
| CCc1cc(O)c(F)cc1-c1ccc2c(-c3nc4c([nH]3)CCN(Cc3ccc(N5CCCCC5)nc3)C4)n[nH]c2c1 [Example 25, 5-Ethyl-2-fluoro-4-{3-[5-(3,4,5,6-tetrahydro-2H-[1,2′]bipyridinyl-5′-ylmethyl)-4,5,6,7-tetrahydro-1H-imidazo[4,5-c]pyridin-2-yl]-1H-indazol-6-yl}-phenol] | – | 4 nM |
| CCc1cc(O)c(F)cc1-c1ccc2c(-c3nc4c([nH]3)CCN(Cc3cccnc3C#N)C4)n[nH]c2c1 [Example 26, 3-{2-[6-(2-Ethyl-5-fluoro-4-hydroxy-phenyl)-1H-indazol-3-yl]-1,4,6,7-tetrahydro-imidazo[4,5-c]pyridin-5-ylmethyl}-pyridine-2-carbonitrile] | 4.1 nM | 4 nM |
| CCc1cc(O)c(F)cc1-c1ccc2c(-c3nc4c([nH]3)CCN(Cc3ccc5cccnc5n3)C4)n[nH]c2c1 [Example 28, 5-Ethyl-2-fluoro-4-[3-(5-[1,8]naphthyridin-2-ylmethyl-4,5,6,7-tetrahydro-1H-imidazo[4,5-c]pyridin-2-yl)-1H-indazol-6-yl]-phenol] | 10.9 nM | 13.7 nM |
| O=C(c1cnc(N2CCCCC2)cn1)N1CCc2[nH]c(-c3n[nH]c4cc(-c5cc(F)c(O)cc5CC(F)(F)F)ccc34)nc2C1 [Example 29, (2-{6-[5-Fluoro-4-hydroxy-2-(2,2,2-trifluoro-ethyl)-pheny]-1H-indazol-3-yl}-1,4,6,7-tetrahydro-imidazo[4,5-c]pyridin-5-yl)-(5-piperidin-1-yl-pyrazin-2-yl)-methanone diethylamine salt] | 42 nM | 1.1 nM |
| O=C(c1ccc(F)cc1)N1CCc2[nH]c(-c3n[nH]c4cc(-c5cc(F)c(O)cc5CC(F)(F)F)ccc34)nc2C1 [Example 30, (2-{6-[5-Fluoro-4-hydroxy-2-(2,2,2-trifluoro-ethyl)-phenyl]-1H-indazol-3-yl}-1,4,6,7-tetrahydro-imidazo[4,5-c]pyridin-5-yl)-(4-fluoro-phenyl)-methanone diethylamine salt] | 6.7 nM | 7.7 nM |
| Oc1cc(CC(F)(F)F)c(-c2ccc3c(-c4nc5c([nH]4)CCN(Cc4ccccc4)C5)n[nH]c3c2)cc1F [Example 31, 4-[3-(5-Benzyl-4,5,6,7-tetrahydro-1H-imidazo[4,5-c]pyridin-2-yl)-1H-indazol-6-yl]-2-fluoro-5-(2,2,2-trifluoro-ethyl)-phenol diethylamine salt] | 186 nM | 66 nM |
| {2-[6-(2-Ethyl-5-fluoro-4-hydroxy-phenyl)-1H-indazol-3-yl]-1,4,6,7-tetrahydro-imidazo[4,5-c]pyridin-5-yl}-isothiazol-3-yl-methanone [Example 3] | – | 3.7 nM |
